test system: P. falciparum 3D7 growth, pLDH absorbance; assay: blood-stage malaria parasite growth potency – strain 3D7, dose response (AID 2305)

C=CCOC(=O)N1CCC(CNCc2cccc(-c3cccc(-c4nc5ccc(F)cc5[nH]4)c3)c2)C1 (stereo not drawn) and Cn1cncc1CNCc1ccc(-c2cccc(-c3nc4ccccc4[nH]3)c2)cc1 are within 1.5-fold of each other in IC50: 210 nM for the first, 230 nM for the second.

Going from C=C[C@]1(C)C[C@@H](OC(=O)c2cncn(COC)c2=O)[C@]2(C)[C@H](C)CC[C@]3(CCC(=O)[C@H]32)[C@@H](C)[C@@H]1O to COc1cc(CNC[C@@H](O)[C@H](Cc2ccccc2)NC(=O)c2cc(C3CCCC3)cc(N3CCCC3=O)c2)cc(OC)c1, the IC50 falls from 880 nM to 220 nM (4-fold).

First: O=C(CCn1c2ccccc2c2ccccc21)NN=Cc1ccco1
Second: O=C(O)CCCN1CCCC(=C(c2ccccc2)c2ccccc2)C1
The IC50 of the first is 2-fold lower: 590 nM for the first, 1190 nM for the second. The first is the more potent here.

First: Fc1ccc2c(NN=Cc3ccc(Cl)cc3)ccnc2c1
Second: COc1ccc2c(NN=Cc3ccccc3)ccnc2c1
The IC50 of the first is 5.8-fold higher: 750 nM for the first, 130 nM for the second. The second is the more potent here.

Going from CC[C@H]1CN2CC[C@H]1C[C@@H]2[C@@H](O)c1cc(Cl)nc2ccc(OC)cc12 to C/C=C1\CN2CC[C@H]1C[C@@H]2[C@@H](O)c1ccnc2ccc(O)cc12, the IC50 rises from 60 nM to 250 nM (4.2-fold). The first is the more potent here.

First: CCCN(CCC)S(=O)(=O)c1ccc(C(=O)N2CCC(C(=O)OCC)CC2)cc1
Second: CCOC(=O)CC[C@H](NC(=O)c1ccc(NS(=O)(=O)c2ccc(-c3cnc(N)[nH]c3=O)cc2)cc1)C(=O)OCC
The IC50 of the first is 4.7-fold higher: 800 nM for the first, 170 nM for the second.

COc1ccc(Cl)cc1NC(=O)Nc1ccnc2ccccc12 and Cc1cc(NC(=O)Nc2ccc3ncccc3c2)c2ccccc2n1 are within 1.5-fold of each other in IC50: 680 nM for the first, 960 nM for the second.

Compared with O=C(/C=C/c1ccc(Cl)c(Cl)c1)NC1CCC(CN2CCC(c3nc4ccccc4s3)CC2)CC1 (stereo not drawn), O=C(/C=C/c1ccc(Cl)c(Cl)c1)NCCCCCN1CCC(NC(=O)Nc2cccc(Cl)c2Cl)CC1 is 1.5-fold lower in IC50: 1020 nM for the first, 670 nM for the second. The second is the more potent here.

c1ccc(C(c2cccs2)N2CCN(Cc3ccc(OCCCN4CCCCC4)cc3)CC2)cc1 (stereo not drawn) and O=C(Nc1cccc(CN2CCCN(Cc3cccc(Cl)c3)CC2)c1)c1ccc(-c2ccccc2)cc1 are the same in IC50: 1230 nM for the first, 1230 nM for the second.

Going from Cc1ccc(CC(C)(C)NCC(O)c2cccc(C(F)(F)F)c2)cc1 (stereo not drawn) to COc1c(C)[nH]c(C)c(-c2ccc(Oc3cccc(C(F)(F)F)c3)cc2)c1=O, the IC50 falls from 840 nM to 310 nM (2.7-fold). The second is the more potent here.

Compared with CCc1ccc(-c2cnc(N)c3cc(-c4ccnc(N)n4)ccc23)cc1, O=C(O)CCc1ccc(-c2c[nH]c3ncc(-c4ccc5ncccc5c4)cc23)cc1 is 4.5-fold lower in IC50: 1350 nM for the first, 300 nM for the second. The second is the more potent here.

O=C(/C=C/c1ccc(C(F)(F)F)cc1)N1CCC(CCN2CCC(c3c[nH]c4ccccc34)CC2)CC1 and O=C(NCC1CCN(C/C=C/c2ccccc2)CC1)Nc1ccc(Oc2ccccc2)cc1 are within 1.5-fold of each other in IC50: 720 nM for the first, 1040 nM for the second.

CCOC(=O)c1ccc(-n2c(C)cc(C=C3SC(=Nc4ccccc4)N(C4CCCC4)C3=O)c2C)cc1 and CC(O)C1CCCCN1C(=O)c1ccc(-c2ccc(-c3nc4ccccc4[nH]3)s2)cc1 (stereo not drawn) are within 1.5-fold of each other in IC50: 1170 nM for the first, 970 nM for the second.

First: CN1CCN(Cc2cc3cc(NC(=O)/C=C/c4cccc(Cl)c4)ccc3s2)CC1
Second: Cc1ccc(CN2CCCN(Cc3cccc(NC(=O)c4cc5ccccc5s4)c3)CC2)cc1C
The IC50 of the first is 2.7-fold lower: 270 nM for the first, 730 nM for the second.

Going from COc1ccc(/C=C/C(=O)Nc2ccc(-c3ccncc3)cc2)cc1CCCN(C)C to COc1cc(-c2[nH]c(-c3ccc(OCCN(C)C)cc3)cc2-c2ccncc2)ccc1Cl, the IC50 rises from 750 nM to 1790 nM (2.4-fold).

CCCCNC(=O)[C@H](Cc1ccccc1)NC(=O)c1ccc(O)c(-c2ccc(Cl)c(Cl)c2)c1 and CCOc1cc(C(=O)NC2CCN(Cc3ccccc3)CC2)ccc1-c1nc2ccc(Cl)cc2[nH]1 are within 1.5-fold of each other in IC50: 530 nM for the first, 430 nM for the second.

O=C(NCc1ccccc1)O[C@@H]1CNCC[C@H]1c1ccc(C(O)Cc2ccccc2)cc1 (stereo partly drawn) and O=C(OCC1CCN(Cc2ccccc2)C1)c1ccc(Cl)cc1 (stereo not drawn) are within 1.5-fold of each other in IC50: 580 nM for the first, 680 nM for the second.

CCCC(C)NC(=O)/C=C/c1ccccc1-c1cccc(OC)c1 (stereo not drawn) and COc1ccc(NC(=O)[C@H](CC(C)C)Nc2cc(C)nc(Nc3ccccc3)n2)cc1 are within 1.5-fold of each other in IC50: 1250 nM for the first, 870 nM for the second.

Going from COc1ccc(-c2cccc(NC(=O)c3cccc(Cl)c3)c2)cc1CN1CCNCC1 to COc1ccc(-c2cccc(NC(=O)c3cccc(C#N)c3)c2)cc1CN1CCCN(C)CC1, the IC50 falls from 800 nM to 190 nM (4.2-fold).

Going from Oc1ccc(Cl)cc1CN1CCC2(CCCN(CC3CCC3)C2)C1 (stereo not drawn) to Cc1cc(-c2ccc(O)c(CNC3CCCCC3)c2)cnc1N, the IC50 falls from 370 nM to 200 nM (1.9-fold). The second is the more potent here.

O=C(Nc1ccc(N2CCNCC2)nc1)c1oc(-c2ccccc2)nc1C(F)(F)F and Oc1ccc(CCCNc2nc(NCc3cccc4ccccc34)nc(N3CCNCC3)n2)cc1 are within 1.5-fold of each other in IC50: 980 nM for the first, 810 nM for the second.

Compared with CCc1cn2c3c(cc(C(=O)N[C@@H](Cc4cc(F)cc(F)c4)[C@H](O)CNC4CC4)cc13)N(C)S(=O)(=O)CC2, COc1ccc2nccc([C@@H](O)CN3CC[C@H](NCc4nc5c(cc4F)SCC(=O)N5)[C@H](F)C3)c2c1 is 6.1-fold higher in IC50: 120 nM for the first, 730 nM for the second. The first is the more potent here.

O=C(Cc1cccc(OCCCN(Cc2cccc(C(F)(F)F)c2Cl)CC(c2ccccc2)c2ccccc2)c1)NCc1ccco1 and CC(CNc1nc(NCC(c2ccccc2)c2ccccc2)c2[nH]cnc2n1)c1ccccc1 (stereo not drawn) are within 1.5-fold of each other in IC50: 940 nM for the first, 950 nM for the second.

Compared with CC(=NN=C(N)N)c1ccc2c(c1)Cc1ccccc1-2, CC(=O)Nc1nc(-c2ccccc2)[nH]c1C(N)=O is 5.6-fold lower in IC50: 1410 nM for the first, 250 nM for the second.

Going from COc1ccc(C(=O)CCC(=O)N(Cc2ccc(-c3ccc(CNCCc4ccc(S(C)(=O)=O)cc4)cn3)cc2)C2CCN(Cc3ccccc3)CC2)cc1F to CCOC(=O)c1ccc(NC(=O)N(Cc2ccc(-c3ccc(CN4CCNCC4)cc3)cc2)Cc2cccnc2)cc1, the IC50 rises from 440 nM to 930 nM (2.1-fold).

Compared with Oc1cc2ccccc2cc1CNC1CCCCC1, Cc1cc(-c2cccc(CNC3CCCC3)c2)ccc1S(=O)(=O)NCCN1CCCC1 is 2.1-fold higher in IC50: 590 nM for the first, 1240 nM for the second.

Going from CN1CCC(N2CCN(Cc3ccc(-c4ccc(-c5nc6ccc(F)cc6[nH]5)s4)cc3)CC2)CC1 to CC(CN1CCN(C)CC1)C(=O)Nc1ccc(-c2ccc(-c3nc4ccc(C(F)(F)F)cc4[nH]3)cc2)cc1 (stereo not drawn), the IC50 rises from 150 nM to 410 nM (2.7-fold). The first is the more potent here.

First: CC1CCC2(CC1)N=C(N)N=C(N)N2OCc1cc2ccccc2c2ccccc12 (stereo not drawn)
Second: COc1cc(CCNc2nc(NCc3cccc4ccccc34)nc(N3CCC(N)CC3)n2)ccc1O
The IC50 of the first is 3.3-fold lower: 240 nM for the first, 790 nM for the second.

CCCNCc1ccc(-c2ccc(CN(CCOC)C(=O)c3ccc([N+](=O)[O-])c(C)c3)cc2)nc1 and Cc1cc2nc(-c3ccc(OCC(=O)NCc4cccc(C(F)(F)F)c4)cc3)[nH]c2cc1C are within 1.5-fold of each other in IC50: 870 nM for the first, 990 nM for the second.

Going from COc1ccc2nccc(NC(=O)N3CCC(NCc4cc5c(F)ccc(F)c5[nH]4)CC3)c2n1 to COc1ccc2ccc(F)c(CCN3CCC(NCc4cc5c(cn4)OCCO5)CC3)c2n1, the IC50 rises from 220 nM to 840 nM (3.8-fold).

Going from CCC(C)CC(=O)Nc1ccc(OC)c(S(=O)(=O)N[C@@H]2CCN(C#N)C2)c1 (stereo partly drawn) to CCCCC(CC)NC(=O)[C@H]1CNCCN1C(=O)CCCc1ccccc1 (stereo partly drawn), the IC50 falls from 1490 nM to 890 nM (1.7-fold).

COC(=O)c1ccc(N2CCN(CCCCNC(=O)c3ccc(NC(=O)c4ccc(Cl)cc4)cc3)CC2)c(OC)c1 and N#Cc1cccc(CN2CCCN(Cc3ccc(C(=O)Nc4ccc(Cl)cc4)cc3)CC2)c1 are within 1.5-fold of each other in IC50: 1300 nM for the first, 880 nM for the second.

Compared with COc1ccc2nccc([C@@H](O)CN3CCC(NC(=O)/C=C/c4cccc(C)c4)CC3)c2c1, COc1ccc2nccc(NN=Cc3ccc(N(C)C)cc3)c2c1 is 1.6-fold lower in IC50: 1250 nM for the first, 800 nM for the second. The second is the more potent here.

COc1ccc2nc(Nc3nc4ccncc4[nH]3)sc2c1 and COc1ccc2c(NN=Cc3cccc(C)n3)ccnc2c1 are within 1.5-fold of each other in IC50: 1130 nM for the first, 760 nM for the second.

Going from Cc1[nH]c(C)c(-c2ccc(OCc3ccccc3)cc2)c(=O)c1Br to Cc1[nH]c(C)c(-c2ccc(C(=O)c3ccccc3)cc2)c(=O)c1Br, the IC50 rises from 280 nM to 780 nM (2.8-fold). The first is the more potent here.

Going from Fc1cccc(CNc2ncc(-c3ccsc3)c(-c3nccs3)n2)c1 to Cc1cccc(CNc2ncc(C)c(NCCC(=O)Nc3ccccc3)n2)c1, the IC50 rises from 240 nM to 1150 nM (4.8-fold).

COc1cc(-c2nc3c4ccccc4c4ccccc4c3[nH]2)cc(OC)c1OC and COc1ccc(CN(C)CCCOc2ccc(NC(=O)c3cccc4c(=O)c5cccc(C)c5[nH]c34)cc2)cc1OC are within 1.5-fold of each other in IC50: 850 nM for the first, 890 nM for the second.

CN(CCN(C)CC(O)c1ccc(Cl)c(Cl)c1)CC(O)c1ccc(Cl)c(Cl)c1 (stereo not drawn) and CC(C)(CNC(=O)/C=C/c1ccc(Cl)c(Cl)c1)CNc1cc(=O)c2ccccc2[nH]1 are within 1.5-fold of each other in IC50: 1100 nM for the first, 860 nM for the second.

Compared with COc1cc(NC(=O)N2CCOC(CCN3CCC(c4ccccc4)CC3)(c3ccc(Cl)c(Cl)c3)C2)cc(OC)c1 (stereo not drawn), O=C(/C=C/c1ccc(Cl)c(Cl)c1)NCCCCN1CCCN(C(=O)Nc2cc(Cl)cc(Cl)c2)CC1 is 3.3-fold higher in IC50: 290 nM for the first, 950 nM for the second.

Compared with Cc1nn(-c2ccc(Cl)cc2)c2[nH]c(CN3CCN(c4cccc(Cl)c4)CC3)cc(=O)c12, N#Cc1ccc(NC(=O)N2CCCN(CCCCCNC(=O)/C=C/c3ccc(Cl)c(Cl)c3)CC2)cc1 is 3.2-fold higher in IC50: 240 nM for the first, 770 nM for the second. The first is the more potent here.

Compared with OC1(c2ccccc2)c2cc(Cl)ccc2OC1c1nc2c(Cl)ccc(Cl)c2o1 (stereo not drawn), COc1ccc(-c2nc3c(N)nc(N)nc3nc2-c2ccccc2Cl)cc1 (tested in a mixture with another compound) is 1.8-fold higher in IC50: 300 nM for the first, 550 nM for the second. The first is the more potent here.

Compared with CCCCCCN=C(N)c1ccc(OCCCCCOc2ccc(C(N)=NCCCCCC)cc2)cc1, CC(Cc1ccc(OCCCCOc2ccccc2)cc1)NCCCn1ccnc1 (stereo not drawn) is 1.8-fold lower in IC50: 310 nM for the first, 170 nM for the second. The second is the more potent here.

Compared with COCCOc1cccc(CN2CCC(c3cc4nc(C)cc(C(F)(F)F)n4n3)C2)c1 (stereo not drawn), CC(C)(C)c1ccc(CN2CCCCC(NC(=O)c3cc(-c4ccccc4F)cs3)C2)cc1 (stereo not drawn) is 4.9-fold lower in IC50: 1330 nM for the first, 270 nM for the second.

Cc1nccn1Cc1cc(C(C)(C)C)c(O)c(C(C)(C)C)c1 and CC(C)N(Cc1cnc(N)c(C#N)n1)c1ccc(Cl)c(Cl)c1 are within 1.5-fold of each other in IC50: 790 nM for the first, 840 nM for the second.

O=C(CC1CCCC1)Nc1ccc2c(c1)CCC2 and O=C(NCCCN1CCC(N2CCCCC2)CC1)c1ccc(N2CCOc3ccccc32)s1 are within 1.5-fold of each other in IC50: 870 nM for the first, 730 nM for the second.

Going from O=C(NC1CCC(N2CCC3(CC2)C(=O)NCN3c2ccccc2)CC1)c1cc2ccccc2[nH]1 (stereo not drawn) to CC(=O)Nc1nc(C(=O)Nc2cccc(-c3ccc(-c4nc5ccccc5[nH]4)cc3)c2)cs1, the IC50 falls from 680 nM to 420 nM (1.6-fold).

First: Cc1cccc(NC(=O)N(Cc2cc3cc(C)cc(C)c3[nH]c2=O)C2CC2)c1
Second: CCOC(=O)c1ccc(NC(=O)Nc2ccc(-c3cccc(-c4nc5ccccc5[nH]4)c3)cc2)cc1
The IC50 of the first is 2.4-fold higher: 340 nM for the first, 140 nM for the second.

First: FC(F)(F)c1ccc2nc(-c3ccc(-c4ccc(CNCCc5ccncc5)cc4)cc3)[nH]c2c1
Second: NC(=O)c1cnc2cc(-c3ccoc3)ccc2c1Nc1ccc(NC(=O)Nc2ccccc2Cl)cc1
The IC50 of the first is 4.2-fold lower: 130 nM for the first, 540 nM for the second.

CCN(CC)CCCC(C)Nc1cc(C=Cc2ccc([N+](=O)[O-])cc2)nc2ccc(OC)cc12 (stereo not drawn) and Nc1ccncc1C(=O)NCCCCN1CCN(c2nsc3ccccc23)CC1 are within 1.5-fold of each other in IC50: 570 nM for the first, 800 nM for the second.

Source: PubChem BioAssay AID2305 (GlaxoSmithKline (GSK), 2010)
